Reference: PubChem BioAssay (NCI)
Where “and” joins values, the source holds several entries; their conditions need not be identical. Equal entries are not always repeated.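 Exposure lasted 48 hours, with cells grown in 96-well plates and compounds tested at five concentrations. At the GI50, growth is halved. The concentration for full growth arrest is given as TGI.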

How the values were obtained:
Test in all cases: inhibition of tumour cell growth, NCI panel, 48 h
NCI-H522 lung = system: NCI-H522 lung
SK-MEL-28 melanoma = system: SK-MEL-28 melanoma
UO-31 renal = system: UO-31 renal
A549 NSCLC = system: A549 NSCLC
IGROV1 ovarian = system: IGROV1 ovarian
NCI-H460 lung = system: NCI-H460 lung
CCRF-CEM leukemia = system: CCRF-CEM leukemia
TK-10 renal = system: TK-10 renal
MDA-MB-231 breast = system: MDA-MB-231 breast
PC-3 prostate = system: PC-3 prostate

Row | SMILES | TGI (NCI-H522 lung) [µM] | TGI (SK-MEL-28 melanoma) [µM] | TGI (UO-31 renal) | TGI (A549 NSCLC) [µM] | TGI (IGROV1 ovarian) [µM] | TGI (NCI-H460 lung) [µM] | TGI (CCRF-CEM leukemia) [µM] | TGI (TK-10 renal) [µM] | TGI (MDA-MB-231 breast) [µM] | TGI (PC-3 prostate) [µM] | GI50 (NCI-H522 lung) | GI50 (SK-MEL-28 melanoma) | GI50 (UO-31 renal) | GI50 (A549 NSCLC) | GI50 (IGROV1 ovarian) | GI50 (NCI-H460 lung) | GI50 (MDA-MB-231 breast) [µM] | GI50 (TK-10 renal) | GI50 (PC-3 prostate) | GI50 (CCRF-CEM leukemia)
1 | Cc1ccc(SCC(O)=C2C(=O)CCCC2=O)cc1 | > 100 | > 100 | > 100 µM | > 100 | > 100 | > 100 | > 100 | > 100 |  |  |  |  |  |  |  |  |  |  |  | 
2 | O=C(O)Cc1cc(=O)[nH]c2c1C(=O)CCC2 | > 100 | > 100 | > 100 µM |  | > 100 | > 100 | > 100 | > 100 |  |  |  |  |  |  |  |  |  |  |  | 
3 | COc1cc2c3c(c1OC)Oc1ccc(cc1)CC1c4c(cc(OC)c(OC)c4Oc4ccc(cc4)CC3N(C)CC2)CCN1C (stereo not given) | 25.8 | 34.2 | 31.4 µM | 70.4 | 67.8 | 37.1 | 55.1 | 46.1 |  |  |  |  |  |  |  |  |  |  |  | 
4 | CC(=O)OCC(OC(C)=O)C(OC(C)=O)C(OC(C)=O)C(=O)CNn1c(-c2ccccc2Cl)nc2ccc(Br)cc2c1=O (stereo not given) | > 100 | > 100 | > 100 µM | > 100 |  | > 100 | > 100 |  |  |  |  |  |  |  |  |  |  |  |  | 
5 | Cc1cc(O)c2c(c1)C(=O)C(c1c(C)cc3c(c1O)C(=O)C1OC1C3=O)=CC2=O (stereo not given) | 1.4 | 5.53 | 3.77 µM | 43.1 | 23.9 | 25.8 |  | 3.36 | 4.14 | 25.1 |  |  |  |  |  |  |  |  |  | 
6 | CC(=O)NS(=O)(=O)c1ccc(-n2nc(-c3ccccc3)cc2C2=CC(=O)C=CC2=O)cc1 | > 100 | > 100 | > 100 µM | > 100 | > 100 | > 100 |  | > 100 | > 100 | > 100 | > 100 µM | > 100 µM | > 100 µM | > 100 µM | > 100 µM | > 100 µM | > 100 | 75.4 µM | > 100 µM | 
7 | CCCCCCCCCCCCCCC(O)C1CCC(C(O)CCC(O)CCCCCC(O)CC2=CC(C)OC2=O)O1 (stereo not given) | 7.4 | 10.1 | 6.78 µM | 13.2 | 18.6 |  | 5.12 | 17.9 |  |  |  |  |  |  |  |  |  |  |  | 
8 | Cc1cc(Cl)ccc1NC(=O)CCCC(=O)C(C(=O)c1ccccc1)c1ccccc1 (stereo not given) | > 100 |  |  |  | > 100 | > 100 | > 100 |  |  |  |  |  |  |  |  |  |  |  |  | 
9 | C[C@@H](c1ccccc1)N(CC#N)C1CCC[C@H]1O (stereo not given in full) | > 100 | > 100 | > 100 µM | > 100 | > 100 | > 100 | > 100 | > 100 |  |  |  |  |  |  |  |  |  |  |  | 
10 | O=C(O)c1oc2cccc3c2c1CCC3 | > 100 | > 100 | > 100 µM | > 100 | > 100 | > 100 | > 100 | > 100 |  |  |  |  |  |  |  |  |  |  |  | 
11 | O=C1C2=C(c3ccccc31)C(c1ccc(Cl)cc1)NC(=S)N2 (stereo not given) | 56.2 | 34.1 | 35 µM | 39 | 42.6 | > 100 | 54.6 | 48.9 |  |  |  |  |  |  |  |  |  |  |  | 
12 | O=C(c1ccccc1)c1ccccc1C(=O)c1ccccc1 |  | > 100 |  | > 100 |  | > 100 | > 100 | > 100 | > 100 | > 100 |  | 30.9 µM |  | 50 µM |  | 35.9 µM | 65.5 | 32.8 µM | 37.7 µM | 42.9 µM
13 | Cc1ccc(/C=C2\CN(Cc3cn(CCNc4ccnc5cc(Cl)ccc45)nn3)C/C(=C\c3ccc(C)cc3)C2=O)cc1 | 3.66 | 3.26 | 2.85 µM | 3.73 | 3.73 | 3.38 |  | 3.36 | 4.62 | 3.74 | 1.98 µM | 1.74 µM | 1.44 µM | 1.8 µM | 1.92 µM | 1.54 µM | 2.14 | 1.91 µM | 1.75 µM | 
14 | c1ccc(-c2cnc3nc4ccccc4nc3n2)cc1 | 19 | 32.8 | 19.5 µM | 23.6 | 17.5 | 13.3 | 10.2 | 20.8 | 17.4 |  |  |  |  |  |  |  |  |  |  | 
15 | c1ccc(COc2cccc3cccnc23)cc1 | > 100 | > 100 | > 100 µM | > 100 | > 100 | > 100 | > 100 | > 100 |  |  |  |  |  |  |  |  |  |  |  | 
16 | O=C1C2=C(c3ccccc31)C(c1ccc(F)cc1)N1C(=O)CCSC1=N2 (stereo not given) | > 100 | > 100 | > 100 µM | > 100 | > 100 | > 100 | > 100 | > 100 |  |  |  |  |  |  |  |  |  |  |  | 

Row | SMILES | TGI (NCI-H522 lung) [µM] | TGI (SK-MEL-28 melanoma) [µM] | TGI (UO-31 renal) | TGI (A549 NSCLC) [µM] | TGI (IGROV1 ovarian) [µM] | TGI (NCI-H460 lung) [µM] | TGI (CCRF-CEM leukemia) [µM] | TGI (TK-10 renal) [µM] | TGI (MDA-MB-231 breast) [µM] | TGI (PC-3 prostate) [µM] | GI50 (NCI-H522 lung) | GI50 (SK-MEL-28 melanoma) | GI50 (UO-31 renal) | GI50 (A549 NSCLC) | GI50 (IGROV1 ovarian) | GI50 (NCI-H460 lung) | GI50 (MDA-MB-231 breast) [µM] | GI50 (TK-10 renal) | GI50 (PC-3 prostate) | GI50 (CCRF-CEM leukemia)
17 | COC(=O)/C(=N/O)C(C(=O)OC)C(=O)C(=O)Nc1c(Cl)cc(C)cc1S(=O)(=O)O (stereo not given) | > 100 | > 100 | > 100 µM | > 100 | > 100 | > 100 | > 100 | > 100 |  |  |  |  |  |  |  |  |  |  |  | 
18 | N[C@H](C(=O)O)[C@@H](Cl)CC(=O)O | > 100 | > 100 | > 100 µM | > 100 | > 100 | > 100 | > 100 | > 100 |  |  |  |  |  |  |  |  |  |  |  | 
19 | Cc1cc(Cl)ccc1NC(=O)NC(C)(C)COC(=O)Nc1cccc(Cl)c1 |  | > 100 | 80.7 µM | 66.4 | > 100 | 36.7 | 37.3 | > 100 | 26 | 52.1 |  | 22.3 µM | 7.11 µM | 5.05 µM | 11.1 µM | 4.86 µM | 5.45 | 8.86 µM | 3.66 µM | 3.88 µM
20 | COC(=O)c1nn(C(=N)c2ccc(Cl)cc2)c2c1CCCCC2 | > 100 | > 100 | > 100 µM | > 100 | > 100 | > 100 | > 100 | > 100 |  |  |  |  |  |  |  |  |  |  |  | 
21 | O=C(Nc1ccccc1C(=O)O)C(=O)C(C(=O)c1ccccc1-c1ccccc1)C1OC(=O)c2ccccc21 (stereo not given) | 30.6 | 35.1 | 32.5 µM | 81.9 | 56.3 | 32.7 | 78.4 | 29.6 |  |  |  |  |  |  |  |  |  |  |  | 
22 | CCOC(=O)NC(=O)c1cn(C2OC(CO)C(O)C2O)c(=O)[nH]c1=O (stereo not given) | > 100 | > 100 | > 100 µM | > 100 | > 100 | > 100 |  |  |  |  |  |  |  |  |  |  |  |  |  | 
23 | [N-]=[N+]=Nc1c(Br)c(=O)[nH]c(=O)n1COCCO | > 100 | > 100 | > 100 µM | > 100 | > 100 | > 100 | > 100 | > 100 |  |  |  |  |  |  |  |  |  |  |  | 
24 | Cc1c(N)nc(C(CC(N)=O)NCC(N)C(N)=O)nc1C(=O)NC(C(=O)NC(C)C(O)C(C)C(=O)NC(C(=O)NCCc1nc(-c2nc(C(=O)NCCCNCCCCN)cs2)cs1)C(C)O)C(OC1OC(CO)C(O)C(O)C1OC1OC(CO)C(O)C(OC(N)=O)C1O)c1cnc[nH]1 (stereo not given) | > 10 | > 10 | 5.71 µg/mL and > 10 µM | > 10 | > 10 | > 10 | > 10 | > 10 |  |  | 7.11 µg/mL | 48 µg/mL | 2.07 µg/mL and 0.691 µg/mL | 2.69 µg/mL and 1.06 µg/mL | 9.17 µg/mL and 6.68 µg/mL | 0.199 µg/mL and 0.171 µg/mL |  | 19.4 µg/mL | 15.3 µg/mL | 3.15 µg/mL
25 | N=C1C(c2nc(-c3ccc(Br)cc3)cs2)=C(O)CN1CC1CCCO1 (stereo not given) |  | > 100 | > 100 µM | > 100 |  |  | > 100 | > 100 | > 100 | > 100 |  | > 100 µM | > 100 µM | > 100 µM |  |  | > 100 | > 100 µM | > 100 µM | > 100 µM
26 | CN/N=C(\C(=O)Nc1ccc([N+](=O)[O-])cc1[N+](=O)[O-])C1NC(=O)NC1=O (stereo not given) |  | > 100 | > 100 µM | > 100 | > 100 | > 100 | > 100 | > 100 |  |  |  |  |  |  |  |  |  |  |  | 
27 | CNC(C)Cc1ccc(O)cc1 (stereo not given) | > 100 | > 100 | > 100 µM | > 100 | > 100 | > 100 | > 100 | > 100 |  |  |  |  |  |  |  |  |  |  |  | 
28 | COc1cc(C(=O)C/C(CCC(=O)Nc2ccc(Cl)cc2Cl)=N/Nc2nnc(C)n2N)ccc1O | > 100 | > 100 | > 100 µM | > 100 | > 100 | > 100 | > 100 | > 100 |  |  |  |  |  |  |  |  |  |  |  | 
29 | COc1cc(CC2CC(c3ccc4c(c3)OCO4)OC2=O)cc(OC)c1OC (stereo not given) |  | > 100 | 82.4 µM | > 100 |  | > 100 | > 100 | > 100 | > 100 | > 100 |  |  |  |  |  |  |  |  |  | 
30 | COC(=O)C12C3C4C1C1C2C3C41C(=O)N(C(C)C)C(C)C (stereo not given) | > 100 | > 100 | > 100 µM | > 100 | > 100 | > 100 | > 100 | > 100 |  |  |  |  |  |  |  |  |  |  |  | 
31 | Cc1cccc(O)c(=O)c1 | > 100 | > 100 | > 100 µM | > 100 | > 100 | > 100 | 33.8 | > 100 |  |  |  |  |  |  |  |  |  |  |  | 
32 | COC(=O)C1=C(c2cc(OC)c(OC)c(OC)c2)O[C@H](c2ccc3c(c2)OCO3)[C@H]1COC(C)=O |  |  | 80 µM |  | > 100 | > 100 | > 100 | > 100 |  |  |  |  |  |  |  |  |  |  |  | 
